Results on three compounds are retold here after paper PMC7688903 (Frontiers in Microbiology, 2020).

Usually amount remaining stands for what is left of the initial amount, in per cent. Low readings indicate a greater loss, high ones greater stability. A word on the IC50: it is the concentration at which inhibition is half-maximal. A high value points to a need for much substance.

Data set [1] relates to E. coli ATCC 25922. It is filed as cell-based, Escherichia coli. To be noted: ATCC 25922, 20 h. The essentials:
(§1)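 Inocula were set to 0.5 McFarland and diluted to ~5 × 10^5 CFU/mL (bacteria, MH broth) or 0.5 × 10^3 to 2.5 × 10^3 CFU/mL (yeast, RPMI 1640). Peptide twofold dilutions were added, plates incubated 20 h at 37°C or 48 h at 35°C, then scored by eye.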

The subject of data set [2] is human erythrocytes. Nature of the data set: Hemolytic activity assay. Type of data set: cell-based. The settings on record: human RBC in PB, 37°C, 1 h, OD420, total lysis control 0.1% SDS, three technical replicates. The gist of the method:
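Washed RBCs from a healthy volunteer were incubated with peptides at 32–128 μM for 1 h at 37°C in PB. Hemoglobin release into the supernatant was read as OD420 against total lysis with 0.1% SDS, in three technical replicates.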

Data set [3] deals with C. albicans ATCC 10231. Nature of the data set: microbe, parasite or virus in culture. The settings on record: ATCC 10231, 48 h. Type of data set: cell-based, Candida albicans. The essentials:
as §1

For data set [4], the system named is A. baumannii ATCC 19606. It is filed as cell-based, Acinetobacter baumannii. The settings on record: ATCC 19606, 20 h. The gist of the method:
as §1

The test system of data set [5] is carbapenem-resistant A. baumannii (CRAB) SIPI-025. It is filed as cell-based, Acinetobacter baumannii. The settings on record: carbapenem-resistant (CRAB) SIPI-025, 20 h. The essentials: as §1
Data set [6] deals with proteases secreted by S. aureus ATCC 25923. In words: in vitro. To be noted: S. aureus ATCC 25923 culture supernatant, pH 8. The gist of the method: (§2)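 Cell-free culture supernatants (overnight, 37°C; MH broth for bacteria, 2% tryptone/2% dextrose for yeast) were centrifuged, adjusted to pH 8.0 and 0.22 μm filtered. Peptides at 0.5 mg/mL were incubated in supernatant 24 h at 37°C; remaining intact peptide measured by RP-HPLC, with peptide-free supernatant as negative control.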

Data set [7] has as its system proteases secreted by P. aeruginosa ATCC 27853. In words: in vitro. To be noted: P. aeruginosa ATCC 27853 culture supernatant, pH 8. The gist of the method: as §2
Data set [8] deals with proteases secreted by C. albicans ATCC 10231. In words: in vitro. To be noted: C. albicans ATCC 10231 culture supernatant, pH 8. The gist of the method: as §2
Data set [9] has as its system P. aeruginosa ATCC 27853. Type of data set: cell-based, Pseudomonas aeruginosa. The settings on record: ATCC 27853, 20 h. The essentials: as §1
Data set [10] concerns carbapenem-resistant P. aeruginosa (CRPA) SIPI-012. Type of data set: cell-based, Pseudomonas aeruginosa. The settings on record: carbapenem-resistant (CRPA) SIPI-012, 20 h. The gist of the method:
as §1

In data set [11] the test system is RAW 264.7 cells. Nature of the data set: Cell viability assay (MTT). Type of data set: cell-based, mouse. To be noted: 1–128 μM peptide in DMEM with 4% FBS, 42 h, 595 nm, triplicate. The gist of the method:
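RAW 264.7 cells (1 × 10^4/well, DMEM + 10% FBS) grown overnight to 80% confluency, then exposed to peptides at 1–128 μM in DMEM with 4% FBS for 42 h at 37 °C. MTT read at 595 nm; viability relative to medium-only controls, triplicate, IC50 as 50% loss of viability.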

Data set [12] relates to S. aureus ATCC 25923. Nature of the data set: microbe, parasite or virus in culture. It is filed as cell-based, Staphylococcus aureus. To be noted: ATCC 25923, 20 h. The essentials: as §1
Data set [13] deals with proteases secreted by A. baumannii ATCC 19606. In words: in vitro. The settings on record: A. baumannii ATCC 19606 culture supernatant, pH 8. The essentials: as §2
For data set [14], the system named is human plasma proteases. In words: in vitro.
Procedure: The peptides were mixed with plasma from healthy volunteers to a final concentration of 0.1 mg/mL and incubated at 37°C. Aliquots (20 or 40 μL) were removed after 0, 2, 4, 6, 8, 12, 24, and 36 h, mixed with 0.05% TFA to a final concentration of 0.01 mg/mL, and incubated on ice for 10 min. After centrifugation (12,000 × g, 5 min), the supernatant was stored at −20°C. The samples were analyzed as described in section “Hydrophobicity” and quantified as described in section “Stability Toward Tryptic Degradation.” All stability tests were performed at least in triplicate. The identities of the metabolites after 12 h of degradation by plasma proteases were determined by LC-MS on a Waters Acquity UPLC-QDa system.

The structures appear in SMILES notation. Converted amounts (≈) assume the structure as drawn. Marks after values point to notes of the source that are not given here. Where a SMILES comes first, the peptide text is derived from it. [ ]: non-standard residue; d: D form. hArg = N=C(N)NCCCC[C@H](N)C(=O)O; Dab = NCC[C@H](N)C(=O)O; Dap = NC[C@H](N)C(=O)O

With `CC(C)C[C@H](NC(=O)[C@H](Cc1ccc(O)cc1)NC(=O)[C@H](CCN)NC(=O)[C@H](CC(C)C)NC(=O)[C@H](CC(C)C)NC(=O)[C@H](CCN)NC(=O)[C@H](CCN)NC(=O)[C@H](Cc1ccccc1)NC(=O)[C@H](CC(C)C)NC(=O)[C@H](CCCCNC(=N)N)NC(=O)[C@@H](N)CCN)C(=O)N[C@@H](CCCNC(=N)N)C(=O)N[C@@H](CCN)C(=O)N[C@@H](Cc1ccccc1)C(N)=O` [UP12] (H-[Dab][hArg]LF[Dab][Dab]LL[Dab]YLR[Dab]F-NH2), the MIC in [1] turned out to be 2 µg/mL (≈ 1.14 µM); in data set [3] it was 4 µg/mL (≈ 2.28 µM); in [4] it was 2 µg/mL (≈ 1.14 µM); in data set [5], 4 µg/mL (≈ 2.28 µM); in data set [9], 2 µg/mL (≈ 1.14 µM); in data set [10], 4 µg/mL (≈ 2.28 µM). In data set [12], this compound yielded an MIC of 1 µg/mL (≈ 0.57 µM). The figures for the “Hemolysis rate (%)” value in data set [2] (64 μM) and in data set [2] (128 μM) were 45.13 ± 1.95 % and “∼100.00* %”, respectively. Further, the fraction remaining at 24 h, 0.5 mg/mL in [6] was found to be 69.5 ± 5.97%; in data set [7], 20.6 ± 4.3%; in data set [8], 37.7 ± 5.24%. The same compound yielded a half-inhibitory concentration (IC50) in [11] of 21.2 ± 2.42 µM.
Take `CC(C)C[C@H](NC(=O)[C@H](Cc1ccc(O)cc1)NC(=O)[C@H](CCN)NC(=O)[C@H](CC(C)C)NC(=O)[C@H](CC(C)C)NC(=O)[C@H](CN)NC(=O)[C@H](CN)NC(=O)[C@H](Cc1ccccc1)NC(=O)[C@H](CC(C)C)NC(=O)[C@H](CCCCNC(=N)N)NC(=O)[C@@H](N)CN)C(=O)N[C@@H](CCCCNC(=N)N)C(=O)N[C@@H](CCN)C(=O)N[C@@H](Cc1ccccc1)C(N)=O` [UP14] (H-[Dap][hArg]LF[Dap][Dap]LL[Dab]YL[hArg][Dab]F-NH2): the MIC came to 2 µg/mL (≈ 1.16 µM) in data set [1]; 4 µg/mL (≈ 2.32 µM) in [3]; 4 µg/mL (≈ 2.32 µM) in data set [4]; 4 µg/mL (≈ 2.32 µM) in data set [5]; 2 µg/mL (≈ 1.16 µM) in data set [9]; 8 µg/mL (≈ 4.63 µM) in [10]. The MIC in [12] amounted to 0.5 µg/mL (≈ 0.29 µM). Moreover, the “Hemolysis rate (%)” value in data set [2] (64 μM) is 66.51 ± 3.14 %; in data set [2] (128 μM), 74.68 ± 1.34 %. Besides, the share remaining at 24 h, 0.5 mg/mL in data set [6] amounted to 57.3 ± 6.54%; in data set [7], 27.6 ± 6.76%; in data set [13], 12.9 ± 1.48%. The half-maximal inhibitory concentration (IC50) in [11] was 14 ± 2.67 µM.
Take `CC(C)C[C@H](NC(=O)[C@H](Cc1ccc(O)cc1)NC(=O)[C@H](CCCCN)NC(=O)[C@H](CC(C)C)NC(=O)[C@H](CC(C)C)NC(=O)[C@@H](CCCCN)NC(=O)[C@@H](CCCCN)NC(=O)[C@H](Cc1ccccc1)NC(=O)[C@H](CC(C)C)NC(=O)[C@@H](CCCNC(=N)N)NC(=O)[C@H](N)CCCCN)C(=O)N[C@@H](CCCNC(=N)N)C(=O)N[C@H](CCCCN)C(=O)N[C@@H](Cc1ccccc1)C(N)=O` [DP05] (H-[dK][dR]LF[dK][dK]LLKYLR[dK]F-NH2): the MIC in data set [1] was 2 µg/mL (≈ 1.06 µM); in data set [3], 2 µg/mL (≈ 1.06 µM); in data set [4] it was 1 µg/mL (≈ 0.532 µM); in [5], 2 µg/mL (≈ 1.06 µM); in [9], 1 µg/mL (≈ 0.532 µM); in data set [10] it was 8 µg/mL (≈ 4.25 µM). In data set [12], this compound returned an MIC of 1 µg/mL (≈ 0.532 µM). Further, the entries for the “Hemolysis rate (%)” value in data set [2] (64 μM) and in data set [2] (128 μM) were 30.09 ± 1.56% and 45.07 ± 2.93%, respectively. In addition, the values for the share remaining at 24 h, 0.5 mg/mL in [6] (Staphylococcus aureus) and in data set [13] (Acinetobacter baumannii) were 66.7 ± 5.9% and 31.7 ± 9%, respectively. The same compound had an IC50 in [11] of 32.7 ± 3.44 µM. Further, the metabolised at 2 h, 0.1 mg/mL in data set [14] was more than 40%. This compound gave a metabolised at 4 h, 0.1 mg/mL in [14] of more than 50%.
